# Assay results reported in patent US8846757B2, “Bioactive depside and anthocyanin compounds, compositions, and methods of use” (The Trustees of Columbia University in the City of New York, priority 2006, dated 2014).
# Like-named read-outs stand apart in the source and are kept apart here.
# Key:
# HT29 colon cancer cells [1] = experiment: Cytotoxicity assay, HT29; conditions: read-out: Cytotoxicity IC50 HT29
# Protocol: (§1) Colon cancer cell lines HT29, HCT116, and SW480 (10,000 cells) were plated into 24-well plates in Dulbecco's modified Eagle medium (DMEM) containing 10% fetal bovine serum (FBS). […] The plates were washed with PBS once and the attached cells were collected by tripsinization.
# [2] = system: IL-8 production in human small airway epithelial (SAE) cells; experiment: IL-8 immunoassay (ELISA) in SAE cells; assay type: cell-based; conditions: compound 100 μM, 24 hours; for inhibition at 100 µM: Homo sapiens
# Protocol: Human SAE cells were cultured according to supplier instructions (Clonetics, CA) and maintained in a controlled atmosphere of air-5% CO2 at 37° C. Confluent SAE cells at passages 4-8 were used for experiments.
# Cigarette smoke extract (CSE) was prepared using a modified protocol (24). Briefly, a Barnet vacuum pump operating at constant flow was used to draw the smoke of one unfiltered 2R1 reference cigarette (University of Kentucky) through 25 mL of Dulbecco's phosphate-buffered saline. This solution (100% CSE) was adjusted to pH 7.4, filtered, diluted with small airway growth medium to a final concentration of 5%, and added to the cells immediately.
# Cells were treated with 5% CSE or pure compounds (100 μM), or pretreated with pure compounds 30 minutes prior to 5% CSE exposure. After 24 hours measurement of human IL-8 in cell culture supemates was performed by ELISA (R&D Systems Inc., MN). Statistical analyses were performed by Student's t-test (two-sided) using the JMP Statistics software package (SAS Institute Inc., NC) and defined at the 5% level.
# SW480 colon cancer cells = experiment: Cytotoxicity assay, SW480; assay type: cell-based; conditions: 72 hours, cell count
# Protocol: as §1
# [3] = system: HCT116 colon cancer cells; experiment: Cytotoxicity assay, HCT116; conditions: read-out: Cytotoxicity IC50 HCT116
# Protocol: as §1
# [4] = DPPH assay (antiradical activity); conditions: 400 μM DPPH
# Protocol: The DPPH assay was performed on extracts, fractions, and purified compounds as previously described, using 400 μM DPPH (9).
# The DPPH assay is an indication of the ability of a substance to scavenge free radicals. Gallic acid is know to be an effective free radical scavenger.
# HT29 colon cancer cells [5] = conditions: positive controls, refs (8, 19); cited from earlier work
# HT29 colon cancer cells [6] = system: HT29 colon cancer cells
# Protocol: as §1
# [7] = system: HCT116 colon cancer cells
# Protocol: as §1
# [8] = pretreated 30 minutes prior to 5% CSE
molecule,measurement,setting,value
"OC[C@H]1O[C@@H](Oc2cc3c(O)cc(O)cc3[o+]c2-c2ccc(O)c(O)c2)[C@H](O)[C@@H](O)[C@@H]1O [Compound 3, cyanidin 3-glucoside]",IC50,"HT29 colon cancer cells [1]; 72 hours, cell count",~100 µM
same,"IL-8 inhibition in SAE cells, Untreated",[2]; no CSE,65.3%
same,"IL-8 inhibition in SAE cells, Treated with 5% CSE",[2]; [8],36.4%
same,IC50,SW480 colon cancer cells,90 to 100 µM
same,IC50,"[3]; 72 hours, cell count",~70 µM
same,IC50,[4],28.4 µM
"OC[C@H]1O[C@@H](Oc2cc3c(O)cc(O)cc3[o+]c2-c2cc(O)c(O)c(O)c2)[C@H](O)[C@@H](O)[C@@H]1O [Compound 4, delphinidin 3-glucoside]",IC50,"HT29 colon cancer cells [1]; 72 hours, cell count",~100 µM
same,"IL-8 inhibition in SAE cells, Untreated","[2]; no CSE, 100 µM",Not Detected
same,"IL-8 inhibition in SAE cells, Treated with 5% CSE",[2]; [8],96.0%
same,IC50,SW480 colon cancer cells,20 µM
same,IC50,"[3]; 72 hours, cell count",12 µM
same,IC50,[4],26.3 µM
"COC(=O)Cc1c(O)cc(O)cc1OC(=O)c1ccc(O)c(O)c1 [Compound 1, methyl 2-[(3,4-dihydroxybenzoyloxy)-4,6-dihydroxyphenyl]acetate]",IC50,"HT29 colon cancer cells [1]; Homo sapiens, HT-29, 72 h",65 µM
same,inhibition at 100 µM,"[2]; no CSE, read-out: IL-8 inhibition in SAE cells, Untreated",81.3%
same,inhibition at 100 µM,"[2]; pretreated 30 minutes prior to 5% CSE, read-out: IL-8 inhibition in SAE cells, Treated with 5% CSE",47.3%
same,IC50,"[3]; Homo sapiens, HCT-116, 72 h",> 100 µM
same,IC50,[4],51.4 µM
catechin [reference compound],"IL-8 inhibition in SAE cells, Untreated",[2]; no CSE,No Change
same,"IL-8 inhibition in SAE cells, Treated with 5% CSE",[2]; [8],60.3%
"O=C(O[C@@H]1Cc2c(O)cc(O)cc2O[C@@H]1c1cc(O)c(O)c(O)c1)c1cc(O)c(O)c(O)c1 [EGCG, epigallocatechin gallate]",HT29 IC50,HT29 colon cancer cells [5],27 µg/mL
"O=c1[nH]cc(F)c(=O)[nH]1 [Compound 5-FU, 5-fluorouracil, reference compound]",IC50,"HT29 colon cancer cells [1]; Homo sapiens, HT-29, 72 h",46.1 µM
same,IC50,"SW480 colon cancer cells; Homo sapiens, SW480",53 µM
same,IC50,"[3]; Homo sapiens, HCT-116, 72 h",45.1 µM
"O=C(O)Cc1c(O)cc(O)cc1OC(=O)c1ccc(O)c(O)c1 [Compound 2, 2-O-(3,4-dihydroxybenzoyl)-2,4,6-trihydroxyphenylacetic acid]","IL-8 inhibition in SAE cells, Untreated",[2]; no CSE,74.9%
same,"IL-8 inhibition in SAE cells, Treated with 5% CSE",[2]; [8],70.3%
same,IC50,[4],61.8 µM
same,IC50,HT29 colon cancer cells [6],> 100 µM
same,IC50,[7],30 µM
"O=C(O)c1cc(O)c(O)c(O)c1 [Gallic acid, gallic acid, reference compound]",IC50,[4],30 ± 2.9 µM
